Results taken from ChEMBL document CHEMBL3868618, “Synthesis and biological evaluation of chalcone derivatives containing aminoguanidine or acylhydrazone moieties” (Bioorg Med Chem Lett, 2016).
Values after ≈ are worked out from the molar mass of the structure shown.

Assays:
Staphylococcus aureus [1] = test: Antibacterial activity against Staphylococcus aureus 503 measured after 24 hrs by two-fold serial dilution method; type: functional; details: Staphylococcus aureus, 503, 24 h
Staphylococcus aureus [2] = test: Antibacterial activity against Staphylococcus aureus 4220 measured after 24 hrs by two-fold serial dilution method; type: functional; details: Staphylococcus aureus, 4220, 24 h
Staphylococcus aureus [3] = test: Antibacterial activity against Staphylococcus aureus 209 measured after 24 hrs by two-fold serial dilution method; type: functional; details: Staphylococcus aureus, 209, 24 h
Streptococcus mutans = test: Antibacterial activity against Streptococcus mutans 3065 measured after 24 hrs by two-fold serial dilution method; type: functional; details: Streptococcus mutans, 3065, 24 h
Escherichia coli [4] = test: Antibacterial activity against Escherichia coli 1924 measured after 24 hrs by two-fold serial dilution method; type: functional; details: Escherichia coli, 1924, 24 h
Escherichia coli [5] = test: Antibacterial activity against Escherichia coli 1356 measured after 24 hrs by two-fold serial dilution method; type: functional; details: Escherichia coli, 1356, 24 h
Salmonella typhimurium [6] = test: Antibacterial activity against Salmonella typhimurium 1926 measured after 24 hrs by two-fold serial dilution method; type: functional, Salmonella enterica subsp. enterica serovar Typhimurium; details: Salmonella enterica, 1926, 24 h
Pseudomonas aeruginosa = test: Antibacterial activity against Pseudomonas aeruginosa 2742 measured after 24 hrs by two-fold serial dilution method; type: functional; details: Pseudomonas aeruginosa, 2742, 24 h
Candida albicans [7] = test: Antifungal activity against Candida albicans 7535 measured after 24 hrs by two-fold serial dilution method; type: functional; details: Candida albicans, 7535, 24 h
Staphylococcus aureus [8] = test: Antibacterial activity against methicillin-resistant Staphylococcus aureus 3167 measured after 24 hrs by two-fold serial dilution method; type: functional; details: Staphylococcus aureus, 3167, 24 h
Staphylococcus aureus [9] = test: Antibacterial activity against methicillin-resistant Staphylococcus aureus 3506 measured after 24 hrs by two-fold serial dilution method; type: functional; details: Staphylococcus aureus, 3506, 24 h
Staphylococcus aureus [10] = test: Antibacterial activity against quinolone-resistant Staphylococcus aureus 3505 measured after 24 hrs by two-fold serial dilution method; type: functional; details: Staphylococcus aureus, 3505, 24 h
Staphylococcus aureus [11] = test: Antibacterial activity against quinolone-resistant Staphylococcus aureus 3519 measured after 24 hrs by two-fold serial dilution method; type: functional; details: Staphylococcus aureus, 3519, 24 h
Mus musculus [12] = test: Antiinflammatory activity in mouse assessed as inhibition of xylene-induced ear edema at 100 mg/kg, ip administered 30 mins before xylene challenge measured after 30 mins relative to DMSO-control; type: functional
Salmonella typhimurium [13] = test: Potency index, ratio of gatifloxacin MIC to compound MIC against Salmonella typhimurium 1926; type: functional, Salmonella enterica subsp. enterica serovar Typhimurium
Salmonella typhimurium [14] = test: Potency index, ratio of moxifloxin MIC to compound MIC against Salmonella typhimurium 1926; type: functional, Salmonella enterica subsp. enterica serovar Typhimurium
Candida albicans [15] = test: Potency index, ratio of fluconazole MIC to compound MIC against Candida albicans 7535; type: functional
Mus musculus [16] = test: Antiinflammatory activity in mouse assessed as inhibition of xylene-induced ear edema at 100 mg/kg, po administered 1 hr before xylene challenge measured after 3 hrs; type: functional
Mus musculus [17] = test: Antiinflammatory activity in mouse assessed as inhibition of xylene-induced ear edema at 100 mg/kg, po administered 2 hrs before xylene challenge measured after 3 hrs; type: functional
Mus musculus [18] = test: Antiinflammatory activity in mouse assessed as inhibition of xylene-induced ear edema at 100 mg/kg, po administered 3 hrs before xylene challenge measured after 3 hrs; type: functional
Mus musculus [19] = test: Antiinflammatory activity in mouse assessed as inhibition of xylene-induced ear edema at 100 mg/kg, po administered 4 hrs before xylene challenge measured after 3 hrs; type: functional
Mus musculus [20] = test: Antiinflammatory activity in mouse assessed as inhibition of xylene-induced ear edema at 100 mg/kg, po administered 5 hrs before xylene challenge measured after 3 hrs; type: functional
Mus musculus [21] = test: Antiinflammatory activity in mouse assessed as inhibition of xylene-induced ear edema at 100 mg/kg, po administered 24 hrs before xylene challenge measured after 3 hrs; type: functional
Mus musculus [22] = test: Antiinflammatory activity in mouse assessed as inhibition of xylene-induced ear edema at 50 mg/kg, po administered 2 hrs before xylene challenge measured after 3 hrs; type: functional
Mus musculus [23] = test: Antiinflammatory activity in mouse assessed as inhibition of xylene-induced ear edema at 25 mg/kg, po administered 2 hrs before xylene challenge measured after 3 hrs; type: functional
[24] = Cytotoxicity against human HeLa cells assessed as reduction in cell viability measured after 24 hrs by MTT assay; type: toxicity, cell-based
[25] = Cytotoxicity against human Hep3B cells assessed as reduction in cell viability measured after 24 hrs by MTT assay; type: toxicity, cell-based, Hep 3B2
[26] = Cytotoxicity against human L02 cells assessed as reduction in cell viability measured after 24 hrs by MTT assay; type: toxicity, cell-based

Structure (SMILES) | MIC (Staphylococcus aureus [1]) | MIC (Staphylococcus aureus [2]) | MIC (Staphylococcus aureus [3]) | MIC (Streptococcus mutans) | MIC (Escherichia coli [4]) | MIC (Escherichia coli [5]) | MIC (Salmonella typhimurium [6]) | MIC (Pseudomonas aeruginosa) | MIC (Candida albicans [7]) | MIC (Staphylococcus aureus [8]) | MIC (Staphylococcus aureus [9]) | MIC (Staphylococcus aureus [10]) | MIC (Staphylococcus aureus [11]) | inhibition in vivo at 100 mg/kg (Mus musculus [12]) | also measured
N=C(N)N/N=C/c1ccc(/C=C/C(=O)c2cccc(Br)c2)cc1 | 2 µg/mL (≈ 5.39 µM) | 2 µg/mL (≈ 5.39 µM) | 2 µg/mL (≈ 5.39 µM) | 2 µg/mL (≈ 5.39 µM) | 2 µg/mL (≈ 5.39 µM) | 8 µg/mL (≈ 21.5 µM) | 1 µg/mL (≈ 2.69 µM) | 2 µg/mL (≈ 5.39 µM) | 2 µg/mL (≈ 5.39 µM) | 2 µg/mL (≈ 5.39 µM) | 2 µg/mL (≈ 5.39 µM) | 2 µg/mL (≈ 5.39 µM) | 4 µg/mL (≈ 10.8 µM) | 49.7% | Ratio (Salmonella typhimurium [13]): 1 - 2; Ratio (Salmonella typhimurium [14]): 1; Ratio (Candida albicans [15]): 2
COc1ccc2c(c1)c(CC(=O)O)c(C)n2C(=O)c1ccc(Cl)cc1 [INDOMETHACIN] | – | – | – | – | – | – | – | – | – | – | – | – | – | 89.4% | inhibition in vivo at 100 mg/kg (Mus musculus [16]): 12%; inhibition in vivo at 100 mg/kg (Mus musculus [17]): 30.9 to 33.3%; inhibition in vivo at 100 mg/kg (Mus musculus [18]): 18.6%; inhibition in vivo at 100 mg/kg (Mus musculus [19]): 15.6%; inhibition in vivo at 100 mg/kg (Mus musculus [20]): 10.3%; inhibition in vivo at 100 mg/kg (Mus musculus [21]): 5.01%; inhibition in vivo at 50 mg/kg (Mus musculus [22]): 22.8%; inhibition in vivo at 25 mg/kg (Mus musculus [23]): 4.85%
N=C(N)N/N=C/c1ccc(/C=C/C(=O)c2ccccc2Br)cc1 | 8 µg/mL (≈ 21.5 µM) | 4 µg/mL (≈ 10.8 µM) | 8 µg/mL (≈ 21.5 µM) | 8 µg/mL (≈ 21.5 µM) | 8 µg/mL (≈ 21.5 µM) | 16 µg/mL (≈ 43.1 µM) | 4 µg/mL (≈ 10.8 µM) | 8 µg/mL (≈ 21.5 µM) | 8 µg/mL (≈ 21.5 µM) | 8 µg/mL (≈ 21.5 µM) | 8 µg/mL (≈ 21.5 µM) | 8 µg/mL (≈ 21.5 µM) | 16 µg/mL (≈ 43.1 µM) | 78.3% | –
N=C(N)N/N=C/c1ccc(/C=C/C(=O)c2ccc(Cl)cc2Cl)cc1 | 2 µg/mL (≈ 5.54 µM) | 2 µg/mL (≈ 5.54 µM) | 2 µg/mL (≈ 5.54 µM) | 2 µg/mL (≈ 5.54 µM) | 2 µg/mL (≈ 5.54 µM) | 8 µg/mL (≈ 22.1 µM) | 1 µg/mL (≈ 2.77 µM) | 2 µg/mL (≈ 5.54 µM) | 1 µg/mL (≈ 2.77 µM) | 8 µg/mL (≈ 22.1 µM) | 8 µg/mL (≈ 22.1 µM) | 8 µg/mL (≈ 22.1 µM) | 16 µg/mL (≈ 44.3 µM) | 92.5% | inhibition in vivo at 100 mg/kg (Mus musculus [16]): 20.7%; inhibition in vivo at 100 mg/kg (Mus musculus [17]): 34.2 to 43.5%; inhibition in vivo at 100 mg/kg (Mus musculus [18]): 26.4%; inhibition in vivo at 100 mg/kg (Mus musculus [19]): 16.9%; inhibition in vivo at 100 mg/kg (Mus musculus [20]): 11.3%; inhibition in vivo at 100 mg/kg (Mus musculus [21]): 5.52%; inhibition in vivo at 50 mg/kg (Mus musculus [22]): 33.7%; inhibition in vivo at 25 mg/kg (Mus musculus [23]): 17.6%; IC50 at 24 h [24]: 8.7 µg/mL (≈ 24.1 µM); IC50 at 24 h [25]: 15.3 µg/mL (≈ 42.4 µM); IC50 at 24 h [26]: 18.1 µg/mL (≈ 50.1 µM); Ratio (Salmonella typhimurium [13]): 1 - 2; Ratio (Salmonella typhimurium [14]): 1; Ratio (Candida albicans [15]): 2
O=C(/C=C/c1ccc(/C=N/NC(=O)c2ccncc2)cc1)c1ccc(Br)cc1 | > 64 µg/mL | > 64 µg/mL | > 64 µg/mL | > 64 µg/mL | > 64 µg/mL | > 64 µg/mL | > 64 µg/mL | > 64 µg/mL | > 64 µg/mL | > 64 µg/mL | 64 µg/mL (≈ 147 µM) | > 64 µg/mL | 64 µg/mL (≈ 147 µM) | 55.7% | –
Cc1ccc(C(=O)/C=C/c2ccc(/C=N/NC(=O)c3ccncc3)cc2)c(C)c1 | > 64 µg/mL | > 64 µg/mL | > 64 µg/mL | > 64 µg/mL | > 64 µg/mL | > 64 µg/mL | > 64 µg/mL | > 64 µg/mL | > 64 µg/mL | 64 µg/mL (≈ 167 µM) | 64 µg/mL (≈ 167 µM) | > 64 µg/mL | > 64 µg/mL | 58.5% | –
N=C(N)N/N=C/c1ccc(/C=C/C(=O)c2cccc(Cl)c2)cc1 | 4 µg/mL (≈ 12.2 µM) | 4 µg/mL (≈ 12.2 µM) | 4 µg/mL (≈ 12.2 µM) | 4 µg/mL (≈ 12.2 µM) | 4 µg/mL (≈ 12.2 µM) | 8 µg/mL (≈ 24.5 µM) | 2 µg/mL (≈ 6.12 µM) | 4 µg/mL (≈ 12.2 µM) | 4 µg/mL (≈ 12.2 µM) | 4 µg/mL (≈ 12.2 µM) | 2 µg/mL (≈ 6.12 µM) | 4 µg/mL (≈ 12.2 µM) | 8 µg/mL (≈ 24.5 µM) | 80.7% | –
Cc1ccc(C(=O)/C=C/c2ccc(/C=N/NC(=N)N)cc2)cc1 | 4 µg/mL (≈ 13.1 µM) | 4 µg/mL (≈ 13.1 µM) | 4 µg/mL (≈ 13.1 µM) | 8 µg/mL (≈ 26.1 µM) | 4 µg/mL (≈ 13.1 µM) | 8 µg/mL (≈ 26.1 µM) | 4 µg/mL (≈ 13.1 µM) | 2 µg/mL (≈ 6.53 µM) | 2 µg/mL (≈ 6.53 µM) | 8 µg/mL (≈ 26.1 µM) | 2 µg/mL (≈ 6.53 µM) | 4 µg/mL (≈ 13.1 µM) | 4 µg/mL (≈ 13.1 µM) | 77.7% | –
